Experiments:
[1] = system: Rattus norvegicus; assay: Serum creatinine concentration measured after intraperitoneal administration of 10 mg/kg of compound to rats (vehicle0.63+/-0.29); assay type: functional
[2] = system: Rattus norvegicus; assay: Oral diuretic activity was measured after oral administration of 25 mg/kg to rats(control volume is 0.80+/-0.13); assay type: functional, Urine
[3] = system: Rattus norvegicus; assay: Percent inhibition of serum creatinine by the compound given as ratio of Cr value in treated to vehicle treated ones after intraperitoneal administration of 10 mg/kg of compound to rats (vehicle0.63+/-0.29); assay type: functional; conditions: ip
[4] = system: Rattus norvegicus; assay: Effect on urinary excretion potassium and sodium after oral administration of 25 mg/kg to rats(potassium and sodium excretion in control rat is 0.160+/-0.017); assay type: functional, Urine
[5] = biological target: Adenosine A2 receptor (Rattus norvegicus, UniProt P29276+P30543)
[6] = system: Rattus norvegicus; assay: Percent inhibition of Urea nitrogen by the compound given as ratio of UN value in treated to vehicle treated ones fter intraperitoneal administration of 10 mg/kg of compound to rats(vehicle 137.9+/-8.5); assay type: functional; conditions: ip
[7] = system: Rattus norvegicus; assay: Ratio of urinary excretion value (urinary volume) in treated rats to that in control rats, at a peroral dose of 25 mg/Kg; assay type: functional, Urine
[8] = system: Rattus norvegicus; assay: Ratio of urinary excretion value (Na+ concentration) in treated rats to that in control rats, at a peroral dose of 25 mg/Kg; assay type: functional, Urine
[9] = system: Rattus norvegicus; assay: Urea nitrogen concentration measured after intraperitoneal administration of 10 mg/kg of compound to rats(vehicle 137.9+/-8.5); assay type: functional
[10] = biological target: T1, Adenosine receptor A1 (Cavia porcellus, UniProt P47745)
T1 sequence (P47745 whole entry): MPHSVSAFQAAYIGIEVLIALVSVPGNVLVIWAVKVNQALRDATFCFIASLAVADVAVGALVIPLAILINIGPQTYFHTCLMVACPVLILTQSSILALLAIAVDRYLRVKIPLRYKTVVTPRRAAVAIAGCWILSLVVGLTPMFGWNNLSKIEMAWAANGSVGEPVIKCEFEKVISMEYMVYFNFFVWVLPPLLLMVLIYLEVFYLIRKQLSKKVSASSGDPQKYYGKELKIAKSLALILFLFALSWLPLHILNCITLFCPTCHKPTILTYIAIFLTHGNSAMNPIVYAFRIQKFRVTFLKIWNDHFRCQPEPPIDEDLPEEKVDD
Description: Binding affinity against adenosine A1 receptor in guinea pig forebrain membranes using N6-[3H]cyclohexyladenosine as radioligand

[11] = system: Rattus norvegicus; assay: Ratio of sodium ion/potassium ion concentration in treated rats to that in control rats, at a peroral dose of 25 mg/Kg; assay type: functional
[12] = system: Rattus norvegicus; assay: Ratio of urinary excretion value (urinary volume) in treated rats to that in control rats, at a peroral dose of 0.1 mg/Kg; assay type: functional, Urine
[13] = system: Rattus norvegicus; assay: Ratio of urinary excretion value (Na+ concentration) in treated rats to that in control rats, at a peroral dose of 0.005 mg/Kg; assay type: functional, Urine
[14] = system: Rattus norvegicus; assay: Oral diuretic activity was measured after oral administration of 0.1 mg/kg to rats(control volume is 0.92+/-0.05); assay type: functional, Urine
[15] = system: Rattus norvegicus; assay: Ratio of sodium ion/potassium ion concentration in treated rats to that in control rats, at a peroral dose of 0.0025 mg/Kg; assay type: functional
[16] = system: Rattus norvegicus; assay: Oral diuretic activity was measured after oral administration of 0.005 mg/kg to rats(control volume is 0.76+/-0.01); assay type: functional, Urine
[17] = system: Rattus norvegicus; assay: Effect on urinary excretion potassium and sodium after oral administration of 25 mg/kg to rats(potassium and sodium excretion in control rat is 0.138+/-0.008); assay type: functional, Urine
[18] = system: Rattus norvegicus; assay: Effect on urinary excretion potassium and sodium after oral administration of 1.6 mg/kg to rats(potassium and sodium excretion in control rat is 0.173+/-0.016); assay type: functional, Urine
[19] = system: Rattus norvegicus; assay: Ratio of sodium ion/potassium ion concentration in treated rats to that in control rats, at a peroral dose of 0.1 mg/Kg; assay type: functional
[20] = system: Rattus norvegicus; assay: Ratio of sodium ion/potassium ion concentration in treated rats to that in control rats, at a peroral dose of 0.025 mg/Kg; assay type: functional
[21] = system: Rattus norvegicus; assay: Oral diuretic activity was measured after oral administration of 0.025 mg/kg to rats(control volume is 0.82+/-0.05); assay type: functional, Urine
[22] = system: Rattus norvegicus; assay: Ratio of urinary excretion value (Na+ concentration) in treated rats to that in control rats, at a peroral dose of 0.4 mg/Kg; assay type: functional, Urine
[23] = system: Rattus norvegicus; assay: Effect on urinary excretion potassium and sodium after oral administration of 0.0025 mg/kg to rats(potassium and sodium excretion in control rat is 0.146+/-0.006); assay type: functional, Urine
[24] = system: Rattus norvegicus; assay: Serum creatinine concentration measured after intraperitoneal administration of 1 mg/kg of compound to rats(vehicle 2.75+/-0.43); assay type: functional
[25] = system: Rattus norvegicus; assay: Ratio of urinary excretion value (Na+ concentration) in treated rats to that in control rats, at a peroral dose of 6.25 mg/Kg; assay type: functional, Urine
[26] = system: Rattus norvegicus; assay: Ratio of sodium ion/potassium ion concentration in treated rats to that in control rats, at a peroral dose of 0.005 mg/Kg; assay type: functional
[27] = system: Rattus norvegicus; assay: Percent inhibition of serum creatinine by the compound given as ratio of Cr value in treated to vehicle treated ones after intraperitoneal administration of 1 mg/kg of compound to rats(vehicle 2.75+/-0.43); assay type: functional; conditions: ip
[28] = system: Rattus norvegicus; assay: Percent inhibition of Urea nitrogen by the compound given as ratio of UN value in treated to vehicle treated ones after intraperitoneal administration of 1 mg/kg of compound to rats(vehicle 123.2+/-14.2); assay type: functional; conditions: ip
[29] = system: Rattus norvegicus; assay: Ratio of urinary excretion value (urinary volume) in treated rats to that in control rats, at a peroral dose of 0.4 mg/Kg; assay type: functional, Urine
[30] = system: Rattus norvegicus; assay: Ratio of urinary excretion value (urinary volume) in treated rats to that in control rats, at a peroral dose of 1.6 mg/Kg; assay type: functional, Urine
[31] = system: Rattus norvegicus; assay: Ratio of urinary excretion value (Na+ concentration) in treated rats to that in control rats, at a peroral dose of 0.1 mg/Kg; assay type: functional, Urine
[32] = system: Rattus norvegicus; assay: Effect on urinary excretion potassium and sodium after oral administration of 0.005 mg/kg to rats(potassium and sodium excretion in control rat is 0.160+/-0.006); assay type: functional, Urine
[33] = system: Rattus norvegicus; assay: Ratio of urinary excretion value (Na+ concentration) in treated rats to that in control rats, at a peroral dose of 0.0025 mg/Kg; assay type: functional, Urine
[34] = system: Rattus norvegicus; assay: Ratio of urinary excretion value (Na+ concentration) in treated rats to that in control rats, at a peroral dose of 1.6 mg/Kg; assay type: functional, Urine
[35] = system: Rattus norvegicus; assay: Effect on urinary excretion potassium and sodium after oral administration of 0.4 mg/kg to rats(potassium and sodium excretion in control rat is 0.261+/-0.008); assay type: functional, Urine
[36] = system: Rattus norvegicus; assay: Ratio of urinary excretion value (urinary volume) in treated rats to that in control rats, at a peroral dose of 6.25 mg/Kg; assay type: functional, Urine
[37] = system: Rattus norvegicus; assay: Ratio of urinary excretion value (urinary volume) in treated rats to that in control rats, at a peroral dose of 0.005 mg/Kg; assay type: functional, Urine
[38] = system: Rattus norvegicus; assay: Ratio of urinary excretion value (urinary volume) in treated rats to that in control rats, at a peroral dose of 0.025 mg/Kg; assay type: functional, Urine
[39] = system: Rattus norvegicus; assay: Ratio of sodium ion/potassium ion concentration in treated rats to that in control rats, at a peroral dose of 1.6 mg/Kg; assay type: functional
[40] = system: Rattus norvegicus; assay: Ratio of urinary excretion value (urinary volume) in treated rats to that in control rats, at a peroral dose of 0.0025 mg/Kg; assay type: functional, Urine
[41] = system: Rattus norvegicus; assay: Oral diuretic activity was measured after oral administration of 0.0025 mg/kg to rats(control volume is 0.95+/-0.12); assay type: functional, Urine
[42] = system: Rattus norvegicus; assay: Ratio of sodium ion/potassium ion concentration in treated rats to that in control rats, at a peroral dose of 0.4 mg/Kg; assay type: functional
[43] = system: Rattus norvegicus; assay: Effect on urinary excretion potassium and sodium after oral administration of 0.025 mg/kg to rats(potassium and sodium excretion in control rat is 0.183+/-0.012); assay type: functional, Urine
[44] = system: Rattus norvegicus; assay: Ratio of urinary excretion value (Na+ concentration) in treated rats to that in control rats, at a peroral dose of 0.025 mg/Kg; assay type: functional, Urine
[45] = organism: Rattus norvegicus; assay type: functional, Urine; conditions: po, 1.6 mg/kg
[46] = system: Rattus norvegicus; assay: Oral diuretic activity was measured after oral administration of 25 mg/kg to rats(control volume is 0.66+/-0.04); assay type: functional, Urine
[47] = system: Rattus norvegicus; assay: Oral diuretic activity was measured after oral administration of 0.4 mg/kg to rats(control volume is 1.4+/-0.05); assay type: functional, Urine
[48] = system: Rattus norvegicus; assay: Urea nitrogen concentration measured after intraperitoneal administration of 1 mg/kg of compound to rats(vehicle 123.2+/-14.2); assay type: functional
[49] = system: Rattus norvegicus; assay: Effect on urinary excretion potassium and sodium after oral administration of 0.1 mg/kg to rats(potassium and sodium excretion in control rat is 0.143+/-0.013); assay type: functional, Urine

## CCCn1c(=O)c2nc(CC34CC5CC(CC(C5)C3)C4)[nH]c2n(CCC)c1=O
[1]
  Cr: 3.21 mg/dL
[2]
  Urine volume: 0.51 ml 6hr-1 100g-1
[3]
  inhibition in vivo at 10 mg/kg: 12%
[4]
  Na: 0.108 m equiv 6hr-1 100g-1
[5]
  Ki: > 100000 nM
[6]
  inhibition in vivo at 10 mg/kg: 15%
[7]
  T/C: 0.64
[8]
  T/C: 0.67
[9]
  UN: 117.8 mg/dL
[10]
  Ki: 880 nM
[11]
  Na+/K+: 0.84

## CCCn1c(=O)c2nc(C34CC5CC(CC3C5)C4)[nH]c2n(CCC)c1=O [ROLOFYLLINE]
[12]
  T/C: 2.65
[13]
  T/C: 1.6
[14]
  Urine volume: 2.44 ml 6hr-1 100g-1
[15]
  Na+/K+: 1.59
[16]
  Urine volume: 1.39 ml 6hr-1 100g-1
[17]
  Na: 0.457 m equiv 6hr-1 100g-1
[18]
  Na: 0.399 m equiv 6hr-1 100g-1
[19]
  Na+/K+: 1.9
[5]
  Ki: 380 nM
[20]
  Na+/K+: 1.45
[21]
  Urine volume: 1.75 ml 6hr-1 100g-1
[22]
  T/C: 1.7
[23]
  Na: 0.258 m equiv 6hr-1 100g-1
[24]
  Cr: 2 mg/dL
[25]
  T/C: 2.64
[26]
  Na+/K+: 1.11
[27]
  inhibition in vivo at 1 mg/kg: 47%
[28]
  inhibition in vivo at 1 mg/kg: 46%
[29]
  T/C: 1.86
[30]
  T/C: 2.61
[31]
  T/C: 2.34
[32]
  Na: 0.256 m equiv 6hr-1 100g-1
[33]
  T/C: 1.76
[34]
  T/C: 2.3
[35]
  Na: 0.447 m equiv 6hr-1 100g-1
[36]
  T/C: 2.9
[37]
  T/C: 1.83
[7]
  T/C: 4.15
[8]
  T/C: 3.44
[38]
  T/C: 2.13
[39]
  Na+/K+: 1.93
[40]
  T/C: 1.69
[41]
  Urine volume: 1.61 ml 6hr-1 100g-1
[42]
  Na+/K+: 1.42
[43]
  Na: 0.331 m equiv 6hr-1 100g-1
[44]
  T/C: 1.81
[45]
  Urine volume: 2.77 ml 6hr-1 100g-1
[46]
  Urine volume: 2.74 ml 6hr-1 100g-1
[11]
  Na+/K+: 2.05
[47]
  Urine volume: 2.64 ml 6hr-1 100g-1
[48]
  UN: 66.4 mg/dL
[49]
  Na: 0.334 m equiv 6hr-1 100g-1

Source: ChEMBL document CHEMBL1125524, “Adenosine A1 antagonists. 2. Structure-activity relationships on diuretic activities and protective effects against acute renal failure” (J Med Chem, 1992)
